Patent US20230210857A1, “RESPIRATORY STIMULANT PARENTERAL FORMULATIONS” (Enalare Therapeutics Inc., priority 2021, published 2023)

Test: Stability as a function of pH 2-6 (1 mg/mL, 0.25 mg/mL at pH 6, in ~10 mM citric acid/glycine buffers)
Assay type: physicochemical
From the text: Thus, the inventors believe that the solubility of the drug becomes inadequate for the intended product concentration above about pH 3.6. However, the drug product will be diluted prior to infusion and then intravenously infused slowly, and such a low pH is unlikely to present a safety or patient comfort issue, but stability of the drug in solution could be an issue at such a low pH. The purpose of this experiment was to assess the stability of the drug as a function of pH.
A key consideration in such an experiment is the concentration of drug and buffer used. Use of a buffer is essential since the data is meaningless if the pH shifts dramatically during the experiment. However, it is desirable to keep the buffer at minimal strength to minimize the impact of buffer catalysis. Buffer strength can be minimized by keeping the drug concentration low. Keeping the drug concentration low also minimizes confounding the data with solubility limits (i.e. the drug precipitating out of solution).
Methodology: Buffer solutions containing ˜10 mM each of citric acid and glycine in the pH range 2-6 were prepared by titrating 250 mL of a single stock containing both buffer agents with 1N NaOH/1N HCl and removing 50 mL aliquots at predetermined pH values. Solutions at 1 mg/mL were prepared in buffers of pH 2-5 by dissolving ˜25 mg of Compounds having the active agent (N-(4,6-Bis-n-propylamino-[1,3,5]triazin-2-yl)-O,N-dimethyl-hydroxylamine) H2SO4 in ˜23 mL of a given buffer, adjusting the pH to the target and making up the volume to 25.0 mL in a volumetric flask. The solution at pH 6 was prepared similarly but at a lower drug concentration of 0.25 mg/mL using 6.68 mg of Compounds having the active agent (N-(4,6-Bis-n-propylamino-[1,3,5]triazin-2-yl)-O,N-dimethyl-hydroxylamine) H2SO4.
Each of the buffered solutions were filtered through a 0.2 μm polyether sulfone syringe filter into a volumetric flask, which had been previously rinsed with 70% ethanol and dried in a laminar flow hood. Following filtration, each buffered solution was split into 10 aliquots (9 aliquots of 2.5 mL each and 1 aliquot of 2 mL) in 5 mL serum vials previously rinsed with 70% ethanol and dried in a laminar flow hood. Filtration and preparation of aliquots were performed in a laminar flow hood. The 2 mL aliquot of each buffered solution was submitted for T0 analysis (HPLC assay and related substances). Of the nine 2.5 mL aliquots, three aliquots were stored at each 40° C. and 60° C., two aliquots were stored at 25° C. and one aliquot was stored at −70° C. Samples stored at 40° C. and at 60° C. were evaluated for physical appearance, pH, assay and related substances after 1 week, 2 weeks and 4 weeks of storage. Samples at 25° C. and −70° C. served as controls to be analyzed if necessary.
The pH values for all the samples remained relatively constant for up to 4 weeks at both storage temperatures.

SMILES: CCCNc1nc(NCCC)nc(N(C)OC)n1 [active agent, N-(4,6-Bis-n-propylamino-[1,3,5]triazin-2-yl)-O,N-dimethyl-hydroxylamine]
- solution stability versus pH (in words) (assay and impurities data, pH 2 compared to pH 3-6): significantly less stable at pH 2
- Impurities (target pH 2, 40° C. 2 wk): 1.48%
- Impurities (target pH 2, 40° C. 4 wk): 2.49%
- Impurities (target pH 2, 60° C. 1 wk): 3.83%
- Impurities (target pH 2, 60° C. 2 wk): 9.89%
- Impurities (target pH 2, 60° C. 4 wk): 14.34%
- Impurities (target pH 3, 40° C. 2 wk): 0.19%
- Impurities (target pH 3, 40° C. 4 wk): 0.41%
- Impurities (target pH 3, 60° C. 1 wk): 0.71%
- Impurities (target pH 3, 60° C. 4 wk): 2.19%
- Impurities (target pH 4, 40° C. 2 wk): 0.17%
- Impurities (target pH 4, 40° C. 4 wk): 0.22%
- Impurities (target pH 4, 60° C. 2 wk): 0.52%
- Impurities (target pH 4, 60° C. 4 wk): 1.02%
- Impurities (target pH 5, 60° C. 2 wk): 0.62%
- Impurities (target pH 5, 60° C. 4 wk): 1.10%
- Impurities (target pH 6, 40° C. 2 wk): 0.25%
- Impurities (target pH 6, 40° C. 4 wk): 0.28%
- Impurities (target pH 6, 60° C. 4 wk): 1.65%
